Test results as given in US8865706B2, “Heteroaryl-substituted hexahydropyrano[3,4-d][1,3]thiazin-2-amine compounds” (Pfizer Inc., priority 2013, dated 2014).

Assays:
[1] = target: BACE1 enzyme (Homo sapiens (Human), UniProt P56817); assay: BACE1 Cell-Free Assay (fluorescence polarization, cleavage of synthetic APP substrate); format: biochemical; conditions: average of 2 determinations; values marked b: geometric mean of 3-9 determinations
Text: This assay measures the inhibition of the beta-secretase enzyme as it cleaves a non-native peptide.
A synthetic APP substrate that can be cleaved by beta-secretase having N-terminal biotin and made fluorescent by the covalent attachment of Oregon Green at the Cys residue is used to assay beta-secretase activity in the presence or absence of the inhibitory compounds. […] The BACE1 enzyme is affinity purified material from conditioned media of CHO-K1 cells that have been transfected with a soluble BACE construct (BACE1deltaTM96His). Compounds are incubated in a ½ log dose response curve from a top concentration of 100 μM with BACE1 enzyme and the biotinylated fluorescent peptide in 384-well black plates (Thermo Scientific #4318). BACE1 is at a final concentration of 0.1 nM with a final concentration of peptide substrate of 150 nM in a reaction volume of 30 μL assay buffer [100 mM sodium acetate, pH 4.5 (brought to pH with acetic acid), and 0.001% Tween-20]. Plates are covered and incubated for 3 hours at 37° C. The reaction is stopped with the addition of 30 μL of 1.5 μM Streptavidin (Pierce, #21125). After a 10 minute incubation at room temperature, plates are read on a PerkinElmer EnVision for fluorescence polarization (Ex485 nm/Em530 nm). The activity of the beta-secretase enzyme is detected by changes in the fluorescence polarization that occur when the substrate is cleaved by the enzyme.

[2] = system: sAPPβ levels in H4 human neuroglioma cells over-expressing the wild-type human APP695; assay: Whole Cell Assay (In Vitro sAPPb Assay); format: cell-based; conditions: Homo sapiens, 18 hours treatment, average of 2 determinations, values marked b: geometric mean of 3-9 determinations
Protocol: Whole Cell Assay (In Vitro sAPPb Assay):
H4 human neuroglioma cells over-expressing the wild-type human APP695 are treated for 18 hours with compound in a final concentration 1% DMSO. sAPPβ levels are measured using TMB-ELISA with capture APP N-terminal antibody (Affinity BioReagents, OMA1-03132), wild-type sAPPβ specific reporter p192 (Elan), and tertiary anti rabbit-HRP (GE Healthcare).

Sequence of BACE1 enzyme (P56817 46-457): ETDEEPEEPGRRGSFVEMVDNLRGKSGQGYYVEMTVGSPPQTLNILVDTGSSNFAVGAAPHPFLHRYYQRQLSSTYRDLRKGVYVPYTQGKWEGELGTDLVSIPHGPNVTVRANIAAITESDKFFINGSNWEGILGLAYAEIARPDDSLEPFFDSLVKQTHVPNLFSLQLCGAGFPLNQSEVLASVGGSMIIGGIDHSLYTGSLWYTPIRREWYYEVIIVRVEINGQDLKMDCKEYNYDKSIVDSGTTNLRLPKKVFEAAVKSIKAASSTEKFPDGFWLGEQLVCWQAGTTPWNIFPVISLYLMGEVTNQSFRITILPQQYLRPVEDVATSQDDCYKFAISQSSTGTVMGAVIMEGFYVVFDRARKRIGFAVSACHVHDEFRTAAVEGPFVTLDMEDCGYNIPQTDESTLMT

Row | SMILES | IC50 [1] [nM] | IC50 [2] [nM]
1 | Cc1ncc([C@H]2C[C@H]3CSC(N)=N[C@@]3(c3ccc(F)cc3F)CO2)cn1 [Example 17, (4aR,6R,8aS)-8a-(2,4-difluorophenyl)-6-(2-methylpyrimidin-5-yl)-4,4a,5,6,8,8a-hexahydropyrano[3,4-d][1,3]thiazin-2-amine] | 1400 | 60.3
2 | Cc1cc([C@H]2C[C@H]3CSC(N)=N[C@@]3(c3ccc(F)cc3F)CO2)ccn1 [Example 27, (4aR,6R,8aS)-8a-(2,4-Difluorophenyl)-6-(2-methylpyridin-4-yl)-4,4a,5,6,8,8a-hexahydropyrano[3,4-d][1,3]thiazin-2-amine] | 221 | 4.73

Continued by falling IC50 [1], values first:

Row | IC50 [1] [nM] | IC50 [2] [nM] | SMILES
3 | 5020 | 40.8 | NC1=N[C@@]2(c3ccc(F)cc3F)CO[C@@H](c3nc4ccncc4o3)C[C@H]2CS1 [Example 23, (4aR,6R,8aS)-8a-(2,4-Difluorophenyl)-6-([1,3]oxazolo[5,4-c]pyridin-2-yl)-4,4a,5,6,8,8a-hexahydropyrano[3,4-d][1,3]thiazin-2-amine]
4 | 1550 | 141 | NC1=N[C@@]2(c3ccc(F)cc3F)CO[C@@H](c3cncnc3)C[C@H]2CS1 [Example 24, (4aR,6R,8aS)-8a-(2,4-Difluorophenyl)-6-(pyrimidin-5-yl)-4,4a,5,6,8,8a-hexahydropyrano[3,4-d][1,3]thiazin-2-amine]
5 | 72.8 | 13.3 | NC1=N[C@@]2(c3ccc(F)cc3F)CO[C@@H](c3cnn(CC(F)(F)F)c3)C[C@H]2CS1 [Example 5, (4aR,6R,8aS)-8a-(2,4-Difluorophenyl)-6-[1-(2,2,2-trifluoroethyl)-1H-pyrazol-4-yl]-4,4a,5,6,8,8a-hexahydropyrano[3,4-d][1,3]thiazin-2-amine]
